# Measurements from US11685710B2, “Cationic sulfonamide amino lipids and amphiphilic zwitterionic amino lipids” (The Board of Regents of the University of Texas System, priority 2016, dated 2023).
# Columns and labels:
# [1] = In vivo luciferase mRNA delivery (bioluminescence imaging); set-up: species or system mice; settings: Luc mRNA i.v., 24 h; athymic nude 1 mg/kg, C57BL/6 4 mg/kg, NSG 1 mg/kg
# Experimental: In vivo luciferase mRNA delivery: All experiments were approved by the Institutional Animal Care & Use Committee (IACUC) of The University of Texas Southwestern Medical Center and were consistent with local, state and federal regulations as applicable. ZA3-Ep10 ZAL was formulated with in vivo formulation at 50 ZAL:38.5 cholesterol: 2 or 0.5 PEG-lipid mole ratio in the lipid mix, and 7.5:1 ZAL:mRNA weight ratio. Athymic Nude-Foxn1^nu mice (Harlan Laboratories) were injected with ZAL-mRNA NPs at a dose of 1 mg/kg via tail vein injection or intraperiotneal injection. After 24 h and 48 h the luciferase expression was evaluated by live animal bioluminescence imaging Animals were anesthetized under isofluorane, and D-luciferin monosodium hydrate (GoldBio) substrate was injected IP. […]
# All experiments were approved by the Institutional Animal Care & Use Committee (IACUC) of The University of Texas Southwestern Medical Center and were consistent with local, state and federal regulations as applicable. […] After 24 h and 48 h the luciferase expression was evaluated by live animal bioluminescence imaging Animals were anesthetized under isofluorane, and D-luciferin monosodium hydrate (GoldBio) substrate was injected subcutaneously in the neck scruff. […]
# HeLa-Luc-Cas9 cells = assay: Kinetic assay of sgRNA and siRNA delivery (luciferase expression over time); assay type: cell-based
# Experimental: The kinetics of luciferase expression after silencing/editing by siRNA and sgRNA were determined in HeLa-Luc-Cas9 cells. For time points <48 h, ZNPs encapsulating sgRNA or siRNA were delivered to HeLa-Luc-Cas9 cells in 96-well plates at a density of 5K cells per well. After 0.5, 1, 2, 4, 11, 20, 30 and 44 h time point, the cell viability and luciferase expression were determined by the One-Glow+Tox assay. For longer time points, cells were treated in 6-well plates. Beginning at the 2 day time point, cells were aspirated, washed with 1×PBS, trypsinized in 200 μL trypsin and re-suspended in 1800 μL medium. 1 mL of each cell suspension was added to a fresh 6-well plate containing 1 mL DMEM (2 mL total) and returned to the incubator. Of the remaining cell suspension, 50 μL was transferred to a 96-well white-opaque plate (10 wells per sample). Cell viability was determined using the Cell-Titer Glo assay normalized to untreated cells, while relative luciferase expression was determined using the One-Glo assay and normalized against control (siCtrl or sgCtrl). Data was plotted as an average of 5 measurements+/−standard deviation.
# [2] = system: Lox-Stop-Lox tdTomato (tdTO) cassette; assay: In vivo delivery of Cas9 mRNA and sgLoxP (tdTomato activation); set-up: species or system mice; settings: 5 mg/kg
# Experimental: ZA3-Ep10 ZNPs encapsulating Cas9 mRNA and sgLoxp were prepared according to the in vivo nanoparticle formulation protocol using the Nanoassemblr microfluidic mixing device. The lipid mix contained 50 ZA3-Ep10:38.5 cholesterol:0.5 PEG-lipid molar ratios, and the particles were formulated at a 7.5:1 ZAL:total RNA weight ratio. The Cas9 mRNA:sgLoxP weight ratio was maintained at 4:1. […] After which they were sacrificed and the major organs imaged using the IVIS Lumina system for fluorescence expression (dsRed filter set) compared to an uninjected Rosa 26-LSL-tdTomato mouse. A liver specific Cre recombinase adeno-associated virus (Cre-AAV8) injected intravenously via tail vein injection (4 days) was used as a positive control.
# Tissue were fixed in 4% paraformaldehyde (PFA) at RT for 2 hours, then changed in 30% sucrose (in PBS) at 4° C. overnight. Then the tissues were embedded in Cryo-gel (Leica Biosystems), and frozen in dry ice. The blocks were sectioned using Cryostat machine (Leica Biosystems) at 8 μm thickness. […]
# For detection of Tomato positive populations, primary hepatocytes (2×10^6/mL) were isolated and stained with DAPI (Roche, 2 μg/mL) for dead cell exclusion. Cells were analyzed with BD FACSAria Fusion machine (BD Biosciences). Tomato positive cells were counted in DAPI negative (live cell) populations.
# [3] = Nanoparticle size by dynamic light scattering; assay type: physicochemical; settings: Luc mRNA NPs, varied PEG-lipid
# Experimental: Nanoparticle property characterization: Physical properties were measured using a Zetasizer Nano ZS (Malvern) with an He—Ne laser (λ=632 nm). Particle sizes were measured by dynamic light scattering (DLS) (5 measurements, 3 runs×10 seconds, automatic attenuator setting) by 173° back scattering. Zeta potential was measured in a folded capillary cell (Malvern) with samples diluted in PBS for ZAL NPs or citrate phosphate buffer pH 7.4 for CSAL NPs.
# Physical properties were measured using a Zetasizer Nano ZS (Malvern) with an He—Ne laser (λ=632 nm). Particle sizes were measured by dynamic light scattering (DLS) (5 measurements, 3 runs×10 seconds, automatic attenuator setting) by 173° back scattering. Zeta potential was measured in a folded capillary cell (Malvern) with samples diluted in PBS for ZAL NPs or citrate phosphate buffer pH 7.4 for CSAL NPs.
compound,measurement,setting,value
CCCCCCCCC(O)CN(CCC(=O)NCC[N+](C)(C)CCCS(=O)(=O)[O-])CCN(CCN(CC(O)CCCCCCCC)CC(O)CCCCCCCC)CCN(CC(O)CCCCCCCC)CC(O)CCCCCCCC (stereo not shown) [ZA3-Ep10],tissues with expression of luciferase,[1],"liver, lung and spleen"
same,decrease of luciferase expression,"HeLa-Luc-Cas9 cells; sgLuc, 20 h",40%
same,decrease of luciferase expression,"HeLa-Luc-Cas9 cells; sgLuc, after 2 days",95%
same,remaining luciferase expression,"HeLa-Luc-Cas9 cells; sgLuc, persisted throughout the assay (9 days)",5%
same,time luciferase remained low,HeLa-Luc-Cas9 cells; siLuc,about 3 days
same,time until protein expression reached baseline level,"HeLa-Luc-Cas9 cells; siLuc, after transfection",6 days
same,luciferase silenced,"HeLa-Luc-Cas9 cells; siLuc, by 20 h",92%
same,decrease of luciferase expression,"HeLa-Luc-Cas9 cells; siLuc, within the first 4 h",40%
same,fluorescent signal 2 months after treatment,[2],significant fluorescent signal in the liver and kidneys
same,change in ZNP size versus PEG lipid ratio,[3],modest change
